# Patent publication US10167266B2, “Sodium channel blockers” (Parion Sciences, Inc., priority 2002, dated 2019)
# Values joined by “and” are separate entries in the source; they are usually repeats but may differ in a detail not shown here. Equal entries are not always repeated. Structures can show the parent of a compound that is named as a salt.
# Test system: sodium channel (ENaC), canine bronchial epithelia
# Experiment: Sodium channel blocking activity: inhibition of short circuit current (ISC) in airway epithelial monolayers in Ussing chambers
# Format: cell-based
# Conditions: for Fold Enhancement Over Amiloride / Fold Amiloride*: potency in canine bronchial epithelia relative to amiloride; for Fold potency relative to amiloride: Example 51
# Procedure: One assay used to assess mechanism of action and/or potency of the compounds of the present invention involves the determination of lumenal drug inhibition of airway epithelial sodium currents measured under short circuit current (ISC) using airway epithelial monolayers mounted in Ussing chambers. Cells obtained from freshly excised human, dog, sheep or rodent airways are seeded onto porous 0.4 micron Snapwell™ Inserts (CoStar), cultured at air-liquid interface (ALI) conditions in hormonally defined media, and assayed for sodium transport activity (ISC) while bathed in Krebs Bicarbonate Ringer (KBR) in Using chambers. All test drug additions are to the lumenal bath with half-log dose addition protocols (from 1×10^−11 M to 3×10^−5 M), and the cumulative change in ISC (inhibition) recorded. All drugs are prepared in dimethyl sulfoxide as stock solutions at a concentration of 1×10^−2 M and stored at −20° C. Eight preparations are typically run in parallel; two preparations per run incorporate amiloride and/or benzamil as positive controls. After the maximal concentration (5×10^−5 M) is administered, the lumenal bath is exchanged three times with fresh drug-free KBR solution, and the resultant ISC measured after each wash for approximately 5 minutes in duration. Reversibility is defined as the percent return to the baseline value for sodium current after the third wash. All data from the voltage clamps are collected via a computer interface and analyzed off-line.
# Dose-effect relationships for all compounds are considered and analyzed by the Prism 3.0 program. IC50 values, maximal effective concentrations, and reversibility are calculated and compared to amiloride and benzamil as positive controls.
# Amiloride was also tested in this assay as a positive control. The results for the compounds of the present invention are reported as fold-enhancement values relative to amiloride.
structure (smiles),measurement,setting,value
"N=C(NCCc1ccc(N)cc1)NC(=O)c1nc(Cl)c(N)nc1N [drawing 47: n=2, 4, NH2, 4-(4-Aminophenyl)ethylamidino-3,5-diamino-6-chloropyrazinecarboxamide hydrochloride]",Fold Enhancement Over Amiloride,Example 28,12.7 fold
"CC1(C)OCC(COc2ccc(CCCCNC(=N)NC(=O)c3nc(Cl)c(N)nc3N)cc2)O1 (stereo not drawn) [drawing 48: R=H3CxCH3*, 4-[4-(2,2 Dimethyl-[1,3]dioxolan-4 yl)methyloxyphenyl]butylamidino-3,5-diamino-6-chloropyrazinecarboxamide]",Fold Enhancement Over Amiloride,Example 29,91 fold
"Cl.N=C(NCCCCc1ccc(OCC(O)CO)cc1)NC(=O)c1nc(Cl)c(N)nc1N (stereo not drawn) [drawing 48: R=H, 4-[4(2,3-Dihydroxypropyloxyl)phenyl]butylamidino-3,5-diamino-6-chloropyrazinecarboxamide hydrochloride]",Fold Enhancement Over Amiloride,Example 29,124 fold
same,Fold Amiloride*,Example 47,51.95 (50) fold
same,Fold Amiloride*,Example 48,51.95 (79) fold
same,Fold Amiloride*,Example 50,51.55 (79) fold
"CC(=O)OCC(COc1ccc(CCCCNC(=N)NC(=O)c2nc(Cl)c(N)nc2N)cc1)OC(C)=O (stereo not drawn) [drawing 48: R=drawing 49, 4-[4-(2,3-Diacetoxypropyloxy)phenyl]butylamidino-3,5-diamino-6-chloropyrazinecarboxamide]",Fold Enhancement Over Amiloride,Example 29,36 fold
"COCCOc1ccc(CCCCNC(=N)NC(=O)c2nc(Cl)c(N)nc2N)cc1.Cl [drawing 50: n=1, 4-[4-(1,4-Dioxapent-1-yl)phenyl]butylamidino-3,5-diamino-6-chloropyrazinecarboxamide hydrochloride]",Fold Enhancement Over Amiloride,Example 30,87 fold
same,Fold Amiloride*,Example 48,51.5 ± 14.9 (2) fold
"COCCOCCOc1ccc(CCCCNC(=N)NC(=O)c2nc(Cl)c(N)nc2N)cc1 [drawing 50: n=2, 4-[4-(1,4,7-Trioxaoct-1-yl)phenyl]-butyl amidino-3,5-diamino-6-chloropyrazinecarboxamide hydrochloride]",Fold Enhancement Over Amiloride,Example 30,42 fold
same,Fold Amiloride*,Example 48,76.1 (1) fold
"COCCOCCOCCOCCOc1ccc(CCCCNC(=N)NC(=O)c2nc(Cl)c(N)nc2N)cc1.Cl [drawing 50: n=4, 4-[4-(1,4,7,10,13-pentoxatetradec-1-yl)phenyl]-butylamidino-3,5-diamino-6-chloropyrazinecarboxamide hydrochloride]",Fold Enhancement Over Amiloride,Example 30,28.7 fold
"COC(=O)C1OC(Oc2ccc(CCCCNC(N)=NC(=O)c3nc(Cl)c(N)nc3N)cc2)C(OC(C)=O)C(OC(C)=O)C1OC(C)=O (stereo not drawn) [drawing 51: R^5=40, 4-[4-(Methyl-2,3,4-tri-O-acetyl-glucopyranonuronate-1-O-yl)phenyl]butylamidino-3,5-diamino-6-chloropyrazinecarboxamide]",Fold Enhancement Over Amiloride,Example 31,65 fold
"Cl.N=C(NCCCCc1ccc(CO)cc1)NC(=O)c1nc(Cl)c(N)nc1N [drawing 51: R^5=—CH2OH, 4-(4-Hydroxymethylphenyl)butylamidino-3,5-diamino-6-chloropyrazinecarboxamide hydrochloride]",Fold potency relative to amiloride,,50.9 ± 19.8 (3)
same,Fold Enhancement Over Amiloride,Example 31,57 fold
same,Fold Amiloride*,Example 41,50.9 ± 19.8 (3) fold
same,Fold Amiloride*,Example 44,50.9 ± 19.8 (3) fold
"COC(=O)c1ccc(CCCCNC(=N)NC(=O)c2nc(Cl)c(N)nc2N)cc1 [drawing 51: R^5=—CO2CH3, 4-(4-Carboxymethylphenyl)butylamidino-3,5-diamino-6-chloropyrazinecarboxamide hydrochloride]",Fold Enhancement Over Amiloride,Example 31,26.5 fold
"NC(=NC(=O)c1nc(Cl)c(N)nc1N)NCCCCc1ccc(OC2OC(C(=O)O)C(O)C(O)C2O)cc1 (stereo not drawn) [drawing 51: R^5=—O-Glucuronide Na^+ Salt, 4-[4-(5-Carboxy-glucopyranonuronate-1-O-yl)-phenyl]butylamidino-3,5-diamino-6-chloropyrazinecarboxamide]",Fold Enhancement Over Amiloride,Example 31,11.2 fold
"NC(=NC(=O)c1nc(Cl)c(N)nc1N)NCCCCc1ccc(OS(=O)(=O)O)cc1 [drawing 51: R^5=—O—SO3H, 4-(4-Sulfatephenyl)butylamidino-3,5-diamino-6-chloropyrazinecarboxamide]",Fold Enhancement Over Amiloride,Example 31,27.7 fold
"N=C(NCCCCc1ccc(N)cc1)NC(=O)c1nc(Cl)c(N)nc1N [drawing 60: R=NH2, N=0, 4-[4-(4-Amino)phenyl)]butylamidino-3,5-diamino-6-chloropyrazinecarboxamide hydrochloride]",Fold potency relative to amiloride,,32.6 ± 2
same,Fold Amiloride*,Example 41,32.6 ± 2.0 (3) fold
same,Fold Amiloride*,Example 43,32.6 ± 2 (3) fold
same,Fold Amiloride*,Example 48,32.6 ± 2 (3) ^ fold
"N=C(NCCCCc1ccc(CCO)cc1)NC(=O)c1nc(Cl)c(N)nc1N [drawing 60: R=OH, N=2, 4-(4-(2-Hydroxyethyl)phenyl)butylamidino-3,5-diamino-6-chloropyrazinecarboxamide hydrochloride]",Fold Amiloride*,Example 41,79.2 ± 30.6 (4) fold
same,Fold Amiloride*,Example 47,79.2 ± 30.6 (4) fold
"N=C(NCCCCc1ccc(OCCN)cc1)NC(=O)c1nc(Cl)c(N)nc1N [drawing 61: R=NH2, n=2, 4-[4-(2-aminoethyloxy)phenyl)butylamidino-3,5-diamino-6-chloropyrazinecarboxamide hydrochloride]",Fold potency relative to amiloride,,56.5 ± 0
same,Fold Amiloride*,"Example 42, hydrochloride",60.1 ± 1.3 (2) fold and 56.5 ± 0 (4) ^ fold
same,Fold Amiloride*,Example 45,56.5 ± 24 (4) fold
same,Fold Amiloride*,Example 48,84.9 ± 30.3 (6) fold
"Cl.NC(=NCCCCc1ccc(OCCO)cc1)NC(=O)c1nc(Cl)c(N)nc1N [drawing 61: R=OH, n=2]",Fold potency relative to amiloride,,84.9 ± 30.3
same,Fold Amiloride*,Example 42,84.9 ± 30.3 (6) fold
same,Fold Amiloride*,Example 47,84.9 ± 30.3 (6) fold
same,Fold Amiloride*,Example 50,80.3 ± 25.5 (9) fold
"N=C(NCCCCc1ccc(OCCCO)cc1)NC(=O)c1nc(Cl)c(N)nc1N [drawing 61: R=OH, n=3, 4-[4-(3-Hydroxypropyloxy)phenyl)]butylamidino-3,5-diamino-6-chloropyrazinecarboxamide hydrochloride]",Fold potency relative to amiloride,,105.2 ± 26.6
same,Fold Amiloride*,Example 47,105.2 ± 26.6 (7) fold
"Cl.NC(=NCCCCc1ccc(OCCCO)cc1)NC(=O)c1nc(Cl)c(N)nc1N [drawing 61: R=OH, n=3]",Fold Amiloride*,Example 42,105.2 ± 26.6 (7) fold
"N=C(NCCCCc1ccc(C(=O)NCCO)cc1)NC(=O)c1nc(Cl)c(N)nc1N [drawing 62: X=C═O, Y=NH(CH2)2—OH, 4-{4-[N-(3,5-diamino-6-chloropyrazine-2-carbonyl)guanidino]butyl}-N-(2-hydroxyethyl)benzamide hydrochloride]",Fold Amiloride*,Example 43,28.5 (1) fold
"CC(C)(C)OC(=O)NCCOc1ccc(CCCCNC(N)=NC(=O)c2nc(Cl)c(N)nc2N)cc1 [drawing 64: X=NHCO2(CH3)3, [2-(4-{4-[N′-(3,5-Diamino-6-chloropyrazine-2-carbonyl)guanidino]butyl}phenoxy)ethyl]-carbamic acid tert-butyl ester]",Fold Amiloride*,Example 45,51.7 ± 10.1 (2) fold
same,Fold Amiloride*,Example 49,51.7 ± 10.1 (2) fold
"N=C(NCCCCc1ccc(OCC(N)=O)cc1)NC(=O)c1nc(Cl)c(N)nc1N [drawing 65: R=—NH2, 2-{4-[N′-(3,5-diamino-6-chloropyrazine-2-carbonyl)guanidino]-4-butylphenoxy}acetamide hydrochloride]",Fold Amiloride*,Example 46,48.2 ± 24.1 (7) fold
"Cl.Cl.N=C(NCCCCc1ccc(OCCNC[C@H](O)[C@H](O)CO)cc1)NC(=O)c1nc(Cl)c(N)nc1N [drawing 67: O CH2 CH2 NH R^a, N-[4-(4-{2-[(2S,3R)-2,3,4-trihydroxybutylamino]ethoxy}phenyl)butyl]-N′-(3,5-diamino-6-chloropyrazine-2-carbonyl)guanidine dihydrochloride]",Fold Amiloride*,Example 48,52.9 ± 14.3 (5) fold
"Cl.Cl.N=C(NCCCCc1ccc(OCCN(C[C@H](O)[C@H](O)CO)C[C@H](O)[C@H](O)CO)cc1)NC(=O)c1nc(Cl)c(N)nc1N [drawing 67: O CH2 CH2 NR R^a,c (r13), N-[4-(4-{2-[bis-((2S,3R)-2,3,4-trihydroxybutyl)amino]ethoxy}phenyl)butyl]-N′-(3,5-diamino-6-chloropyrazine-2-carbonyl)guanidine dihydrochloride]",Fold Amiloride*,Example 48,73.2 ± 49.3 (9) fold
"CCOC(=O)COc1ccc(CCCCNC(N)=NC(=O)c2nc(Cl)c(N)nc2N)cc1 [drawing 68: OCH2CO2ET, (4-{4-[N′-(3,5-Diamino-6-chloropyrazine-2-carbonyl)guanidino]butyl}phenoxy)acetic acid ethyl ester]",Fold Amiloride*,Example 49,20 (1) fold
"N=C(NCCCCc1cccc(OCC(O)CO)c1)NC(=O)c1nc(Cl)c(N)nc1N (stereo not drawn) [drawing 69: R=CH2OH, Meta, 4-[3-(2-,3-Dihydroxypropyloxyl)phenyl)]butylamidino-3,5-diamino-6-chloropyrazinecarboxamide hydrochloride]",Fold Amiloride*,Example 50,40 (1) fold
